Where “and” joins values, the source holds several entries; their conditions need not be identical. Identical values can stand only once.
How the values were obtained:
[1] = test system: benign prostatic hyperplasia (BPH); test: Mouse model of BPH (white cell number, lecithin density, prostate tissue); type: in vivo
Text: In the BPH model group (FIG. 7), glands proliferation and a small amount of lymphocytes and plasma cells were shown.

nonbacterial prostatitis = test: Mouse model for prostatitis, prostate tissue pathology; type: in vivo
Text: Mouse model for prostatitis was utilized to study the effects of DCP.

[2] = Phase I dose-escalation, Chinese cancer patients; cited from earlier work
[3] = test system: benign prostatic hyperplasia (BPH); test: Study of DCP in male cancer patients also suffering from BPH; type: in vivo, human
[4] = test system: Human MH7A synovial cells; test: MH7A synovial cell proliferation (cell numbers 48 hours after treatment); type: cell-based
Description: (§1) Human MH7A synovial cells were cultured in vitro and proliferation of the cells was measured by quantifying cells numbers 48 hours after treatment. The cells were treated with DCP at concentrations of 1.563 μg/ml; 3.125 μg/ml; 6.25 μg/ml; 12.5 μg/ml; 25 μg/ml; 50 μg/ml; or 100 μg/ml.

[5] = test system: rheumatoid arthritis, osteoarthritis, arthrolithiasis (gout); test: Phase II and Phase III clinical trials in SCLC patients also suffering from rheumatoid arthritis, osteoarthritis, gout and other diseases; type: in vivo, human; settings: DCP 1 to about 10 mg/kg body weight
Description: DCP alleviated symptoms for clinical trial patients suffering from multiple diseases. In China, DCP (1 to about 10 mg/kg body weight) in combination with cisplatin and Paclitaxel were used in Phase II and Phase III clinical trials for treatment of patients having small cell lung cancer (SCLC). The cancer patients were simultaneously suffering from a number of proliferative diseases, degenerative diseases, immunological diseases, and other diseases as indicated above. For example, some of the patients were suffering from rheumatoid arthritis, osteoarthritis, arthrolithiasis (gout) and/or other diseases. […] Such diseases include at least rheumatoid arthritis, osteoarthritis, and arthrolithiasis (gout). […] When DCP was administered with an additional therapeutic agent or adjuvant therapy agent such as folic acid, coenzyme Q10, curcumin, glutathione (GSH), aloe vera, oryzanol, 5-fluorouracil, bortezomib, the effects to reduce disease symptoms were further enhanced.

[6] = test system: Human fibroblast-like synoviocytes rheumatoid arthritis (HFLS-RA) cells; test: HFLS-RA cell proliferation (cell numbers 48 hours after treatment); type: cell-based
Description: as §1, with “fibroblast-like synoviocytes rheumatoid arthritis (HFLS-RA)” for “MH7A synovial”

[7] = majority of BPH patients, after two weeks of use
[8] = 48 hours after treatment, 1.563-100 μg/ml

Molecule: CC(C)(C)NC(=O)[C@H]1CC[C@H]2[C@@H]3CC[C@H]4NC(=O)C=C[C@]4(C)[C@H]3CC[C@]12C [PROSCAR, Finasteride, reference compound]
- Prostate tissue findings (inflammation cells, glandular proliferation) ([1]; PROSCAR drug group, FIG. 8): glandular proliferation was not clear, but inflammation cells were reduced

Molecule: Dicycloplatin [DCP]
- Effective amount for human, based on the effective amount in mice (nonbacterial prostatitis; extrapolated from mouse prostatitis model): 1 to 10 mg/Kg body weight
- Outcome of mice with nonbacterial prostatitis (nonbacterial prostatitis; treatment for 1-2 weeks): returned to normal
- Granulomatous lesions in prostate tissue (nonbacterial prostatitis; treatment for one week, FIG. 5): significantly reduced in some tissues or eliminated in others
- Inflammatory cells in interstitial infiltration (nonbacterial prostatitis; treatment for one week, FIG. 5): significantly reduced
- Tolerated doses [2]: 100 to 550 mg/m^2
- Enlargement of prostate [3, 7]: obviously inhibited
- Maximum of urinary volume [3, 7]: more than 12 mL/s
- PSA [3, 7]: decreased
- Symptoms of BPH ([3]; male patients with cancers and BPH): significantly alleviated
- IC50, inhibition of MH7A cell proliferation [4, 8]: 8.926 mg/L and 8.92 mg/L
- MH7A cell proliferation inhibited ([4]; FIG. 2): 99%
- Lecithin corpuscle (density) ([1]; DCP injection): 30 ± 0.53
- White cell (number/μL) ([1]; DCP injection): 3250 ± 65 number/μL
- Lecithin corpuscle (density) ([1]; DCP oral): 27 ± 0.50
- White cell (number/μL) ([1]; DCP oral): 3500 ± 71 number/μL
- Enlargement of prostate ([1]; after treatment for a therapeutic period): significant inhibited
- Prostate tissue findings (inflammatory cells, glandular proliferation) ([1]; intravenous administration, FIG. 9): inflammatory cells were significantly reduced, and glandular proliferation was inhibited
- Prostate tissue findings (inflammatory cells, glandular proliferation) ([1]; oral administration, FIG. 10): inflammatory cells were significantly reduced and glandular proliferation was inhibited
- Side effects [5]: less patients receiving DCP alone were suffering from side effects and the side effects were of less severity
- Symptoms of proliferative, degenerative, immunological and other diseases [5]: significantly alleviated the symptoms
- IC50, inhibition of HFLS-RA cell proliferation [6, 8]: 3.914 mg/L and 3.125 mg/L
- HFLS-RA cell proliferation inhibited ([6]; FIG. 1): 99%

From patent publication US20240335456A1, “CO-CRYSTAL COMPOSITION AND ITS PHARMACEUTICAL USE” (SYN-NAT PRODUCTS ENTERPRISE LLC, priority 2015, published 2024)
